Tested on: bacteria
Settings: 10 μM

c1ccncc1 [pyridine]
Inhibition of bacterial growth: did not obviously inhibit bacterial growth

Reference: publication PMC9055273 (RSC Advances, 2020)
